# Source: PubChem BioAssay AID248 (DTP/NCI, 2004)
# Where “and” joins values, the source holds several entries; their conditions need not be identical. Equal values may be shown once. Toxic doses and inconclusive results are not listed.
# System: L1210 leukemia ip in BDF1 mice, survival T/C
# Experiment: NCI In Vivo Anticancer Drug Screen. Data for tumor model L1210 Leukemia (intraperitoneal) in B6D2F1 (BDF1) mice
# Settings: endpoint: mean survival time, higher = longer survival
# How it was run: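 Transplanted-tumor mice were given test agent; controls received vehicle only. Survival readings from the two groups were divided (treated over control).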
# [1] = dose: 50.0 mg/kg/injection, schedule: Q01DX009 (ip), vehicle: saline with Tween-80
# [2] = dose: 100.0 mg/kg/injection, schedule: Q01DX009 (ip), vehicle: saline with Tween-80
# [3] = dose: 200.0 mg/kg/injection, schedule: Q01DX009 (ip), vehicle: saline with Tween-80
# [4] = dose: 100.0 mg/kg/injection, schedule: Q01DX009 (ip), vehicle: Klucel (hydroxypropylcellulose) (HPC)
# [5] = dose: 100.0 mg/kg/injection, schedule: Q04DX003 (ip), vehicle: Klucel (hydroxypropylcellulose) (HPC)
# [6] = dose: 200.0 mg/kg/injection, schedule: Q01DX009 (ip), vehicle: Klucel (hydroxypropylcellulose) (HPC)
# [7] = dose: 200.0 mg/kg/injection, schedule: Q04DX003 (ip), vehicle: Klucel (hydroxypropylcellulose) (HPC)
# [8] = dose: 400.0 mg/kg/injection, schedule: Q01DX009 (ip), vehicle: Klucel (hydroxypropylcellulose) (HPC)
# [9] = dose: 400.0 mg/kg/injection, schedule: Q04DX003 (ip), vehicle: Klucel (hydroxypropylcellulose) (HPC)
# [10] = dose: 50.0 mg/kg/injection, schedule: Q01DX001 (ip), vehicle: saline
# [11] = dose: 100.0 mg/kg/injection, schedule: Q01DX001 (ip), vehicle: saline
# [12] = dose: 200.0 mg/kg/injection, schedule: Q01DX001 (ip), vehicle: saline
# [13] = dose: 400.0 mg/kg/injection, schedule: Q01DX001 (ip), vehicle: saline
# [14] = dose: 400.0 mg/kg/injection, schedule: Q01DX009 (ip), vehicle: saline with Tween-80
# [15] = dose: 25.0 mg/kg/injection, schedule: Q01DX009 (ip), vehicle: Klucel (hydroxypropylcellulose) (HPC)
# [16] = dose: 50.0 mg/kg/injection, schedule: Q01DX009 (ip), vehicle: Klucel (hydroxypropylcellulose) (HPC)
# [17] = dose: 100.0 mg/kg/injection, schedule: Q04DX003 (ip), vehicle: saline with Tween-80
# [18] = dose: 200.0 mg/kg/injection, schedule: Q04DX003 (ip), vehicle: saline with Tween-80
# [19] = dose: 400.0 mg/kg/injection, schedule: Q04DX003 (ip), vehicle: saline with Tween-80
# [20] = dose: 100.0 mg/kg/injection, schedule: Q04DX002 (ip), vehicle: Klucel (hydroxypropylcellulose) (HPC)
# [21] = dose: 200.0 mg/kg/injection, schedule: Q04DX002 (ip), vehicle: Klucel (hydroxypropylcellulose) (HPC)
# [22] = dose: 400.0 mg/kg/injection, schedule: Q04DX002 (ip), vehicle: Klucel (hydroxypropylcellulose) (HPC)
structure (smiles),measurement,setting,value
Cc1ccc(S(=O)(=O)N/N=C2/CC3CCC(C)(C2)C3)cc1 (stereo not given),T/C,"dose: 12.5 mg/kg/injection, schedule: Q04DX003 (ip), vehicle: saline with Tween-80",100 % of control
same,T/C,"dose: 25.0 mg/kg/injection, schedule: Q04DX003 (ip), vehicle: saline with Tween-80",98 % of control
same,T/C,"dose: 50.0 mg/kg/injection, schedule: Q04DX003 (ip), vehicle: saline with Tween-80",93 % of control
BrC(Br)(c1ccccc1)C1OCCO1,T/C,[1],100 % of control
same,T/C,[2],106 % of control
same,T/C,[3],93 % of control
COc1cc(OC)c(NC(=O)c2cc3ccccc3cc2O)cc1Cl,T/C,[4],96 % of control
same,T/C,[5],101 % of control
same,T/C,[6],101 % of control
same,T/C,[7],101 % of control
same,T/C,[8],96 % of control
same,T/C,[9],111 % of control
CCC(C)Nc1ccc(NC(=S)Nc2ccc(NC(C)CC)cc2)cc1 (stereo not given),T/C,"dose: 100.0 mg/kg/injection, schedule: Q04DX002 (ip), vehicle: other",89 % of control
same,T/C,"dose: 200.0 mg/kg/injection, schedule: Q04DX002 (ip), vehicle: other",86 % of control
same,T/C,"dose: 400.0 mg/kg/injection, schedule: Q04DX002 (ip), vehicle: other",86 % of control
NC(=O)NC1CC(c2ccccc2)C(O)(c2ccccc2)C1 (stereo not given),T/C,[10],86 % of control
same,T/C,[11],92 % of control
same,T/C,[12],90 % of control
CC(=O)OCC1OC(SC2CCCCC2Br)C(OC(C)=O)C(OC(C)=O)C1OC(C)=O (stereo not given),T/C,[11],101 % of control
same,T/C,[12],104 % of control
same,T/C,[13],106 % of control
CCC(CO)Nc1nc2ccc([N+](=O)[O-])cc2c2ccccc12 (stereo not given),T/C,[4],103 % of control
same,T/C,[5],94 % of control
same,T/C,[6],111 % of control
same,T/C,[7],102 % of control
same,T/C,[9],102 % of control
O=c1cc(CO)occ1O,T/C,[2],93 % of control
same,T/C,"dose: 100.0 mg/kg/injection, schedule: Q01DX009 (ip), vehicle: saline",92 % of control
same,T/C,[3],90 % of control
same,T/C,"dose: 200.0 mg/kg/injection, schedule: Q01DX009 (ip), vehicle: saline",106 % of control
same,T/C,[14],92 % of control
same,T/C,"dose: 400.0 mg/kg/injection, schedule: Q01DX009 (ip), vehicle: saline",97 % of control
CCN(CC)CCSC(=O)c1ccc([N+](=O)[O-])cc1,T/C,[11],98 % of control
same,T/C,[12],104 % of control
CCC(CO)Nc1nc2cc(Br)ccc2c2ccc(Br)cc12 (stereo not given),T/C,[5],90 % of control
same,T/C,[7],87 % of control
same,T/C,[9],94 % of control
Cn1nc(CC(=O)O)c(C(N)=O)c1N,T/C,"dose: 12.5 mg/kg/injection, schedule: Q01DX009 (ip), vehicle: Klucel (hydroxypropylcellulose) (HPC)",93 % of control
same,T/C,[15],101 % of control
same,T/C,[16],96 % of control and 102 % of control
same,T/C,[6],98 % of control
COC1=NS(=O)(=O)C2CCCCCCC2O1 (stereo not given),T/C,"dose: 25.0 mg/kg/injection, schedule: Q01DX001 (ip), vehicle: Klucel (hydroxypropylcellulose) (HPC)",102 % of control
same,T/C,"dose: 25.0 mg/kg/injection, schedule: Q04DX003 (ip), vehicle: Klucel (hydroxypropylcellulose) (HPC)",92 % of control
same,T/C,"dose: 50.0 mg/kg/injection, schedule: Q01DX001 (ip), vehicle: Klucel (hydroxypropylcellulose) (HPC)",94 % of control
same,T/C,"dose: 50.0 mg/kg/injection, schedule: Q04DX003 (ip), vehicle: Klucel (hydroxypropylcellulose) (HPC)",95 % of control
same,T/C,"dose: 100.0 mg/kg/injection, schedule: Q01DX001 (ip), vehicle: Klucel (hydroxypropylcellulose) (HPC)",94 % of control
same,T/C,[5],95 % of control
Nc1nc(N)c2cc(CNc3ccc(C(=O)NC(CCCC(=O)O)C(=O)O)cc3)cnc2n1 (stereo not given),T/C,[17],158 % of control and 175 % of control
same,T/C,[18],154 % of control
same,T/C,[19],87 % of control
CC(O)C(=O)[O][Hg][c]1ccccc1 (stereo not given),T/C,"dose: 2.5 mg/kg/injection, schedule: Q01DX009 (ip), vehicle: saline with Tween-80",91 % of control
same,T/C,"dose: 2.5 mg/kg/injection, schedule: Q04DX003 (ip), vehicle: saline with Tween-80",92 % of control
same,T/C,"dose: 5.0 mg/kg/injection, schedule: Q01DX009 (ip), vehicle: saline with Tween-80",94 % of control
same,T/C,"dose: 5.0 mg/kg/injection, schedule: Q04DX003 (ip), vehicle: saline with Tween-80",105 % of control
same,T/C,"dose: 10.0 mg/kg/injection, schedule: Q01DX009 (ip), vehicle: saline with Tween-80",98 % of control
same,T/C,"dose: 10.0 mg/kg/injection, schedule: Q04DX003 (ip), vehicle: saline with Tween-80",108 % of control
CC/C(=N\N=C(/CC)c1ccccc1)c1ccccc1,T/C,[15],98 % of control
same,T/C,[16],101 % of control
same,T/C,[4],98 % of control
same,T/C,[20],96 % of control
same,T/C,[21],107 % of control
same,T/C,[8],86 % of control
same,T/C,[22],91 % of control
CCCCCCC1=NC(C)(C)CO1,T/C,"dose: 25.0 mg/kg/injection, schedule: Q01DX009 (ip), vehicle: saline with Tween-80",102 % of control
same,T/C,[1],97 % of control
same,T/C,"dose: 50.0 mg/kg/injection, schedule: Q04DX003 (ip), vehicle: saline",99 % of control
same,T/C,[2],102 % of control
same,T/C,"dose: 100.0 mg/kg/injection, schedule: Q04DX003 (ip), vehicle: saline",97 % of control
same,T/C,[3],102 % of control
same,T/C,"dose: 200.0 mg/kg/injection, schedule: Q04DX003 (ip), vehicle: saline",91 % of control
CCN(CC)CCNC(c1ccc(OC)cc1)C(Cl)(Cl)Cl (stereo not given),T/C,"dose: 75.0 mg/kg/injection, schedule: Q01DX001 (ip), vehicle: saline",97 % of control
same,T/C,"dose: 150.0 mg/kg/injection, schedule: Q01DX001 (ip), vehicle: saline",91 % of control
Nc1cc([N+](=O)[O-])ccc1Nc1ccccc1,T/C,"dose: 25.0 mg/kg/injection, schedule: Q01DX009 (ip), vehicle: DMSO",93 % of control
same,T/C,"dose: 100.0 mg/kg/injection, schedule: Q04DX003 (ip), vehicle: DMSO",89 % of control
Clc1cccc(Cl)c1C[N+]12CN3CN(CN(C3)C1)C2,T/C,"dose: 30.0 mg/kg/injection, schedule: Q01DX015 (ip), vehicle: saline",95 % of control
same,T/C,"dose: 60.0 mg/kg/injection, schedule: Q01DX015 (ip), vehicle: saline",100 % of control
same,T/C,"dose: 120.0 mg/kg/injection, schedule: Q01DX015 (ip), vehicle: saline",105 % of control
COc1ccc(C(=O)NC(SC)C(N)=O)cc1 (stereo not given),T/C,[20],90 % of control
same,T/C,[21],101 % of control
same,T/C,[22],93 % of control
CCCCSC(=O)C(C)O (stereo not given),T/C,"dose: 100.0 mg/kg/injection, schedule: Q04DX002 (ip), vehicle: saline with Tween-80",99 % of control
same,T/C,"dose: 200.0 mg/kg/injection, schedule: Q04DX002 (ip), vehicle: saline with Tween-80",89 % of control
same,T/C,"dose: 400.0 mg/kg/injection, schedule: Q04DX002 (ip), vehicle: saline with Tween-80",86 % of control
O=P(OCCCl)(OCCCl)C(c1ccccc1)(c1ccccc1)c1ccccc1,T/C,[4],105 % of control
same,T/C,[6],96 % of control
same,T/C,[8],93 % of control
O=C(/C=C/c1ccccc1)c1ccc(N=Cc2ccccc2)cc1,T/C,[10],94 % of control
same,T/C,[11],94 % of control
same,T/C,[12],90 % of control
same,T/C,[13],105 % of control
O=C(Nc1cc([N+](=O)[O-])ccc1F)N(Cc1ccccc1)c1ccccc1,T/C,[5],97 % of control
same,T/C,[7],92 % of control
same,T/C,[9],87 % of control
CC1CN(Cc2ccccc2)C(=O)N(c2ccccc2)C1=O (stereo not given),T/C,"dose: 100.0 mg/kg/injection, schedule: Q01DX Z (ip), vehicle: methylcellulose (MC)",92 % of control
Cc1ccc(S(=O)(=O)OCC2COC(C(Cl)(Cl)Cl)O2)cc1 (stereo not given),T/C,[2],94 % of control
same,T/C,[17],106 % of control
same,T/C,[3],92 % of control
same,T/C,[18],113 % of control
same,T/C,[14],94 % of control
same,T/C,[19],110 % of control
Cc1nc(N)[nH]c(=O)c1CCc1ccccc1,T/C,[5],100 % of control
same,T/C,[7],94 % of control
same,T/C,[9],100 % of control
CCOc1ncc(N)c(OCC)n1,T/C,[10],112 % of control
same,T/C,[11],97 % of control
same,T/C,[12],103 % of control
same,T/C,[13],100 % of control
Cc1ccc(N=Nc2ccc(C)cc2NC(=O)C2CC2)cc1,T/C,[4],97 % of control
same,T/C,[6],97 % of control
same,T/C,[8],97 % of control
